Reference: US5496826A, “Pharmaceutical methods of using heterocyclic derivatives of N-phenylamides” (Bristol-Myers Squibb Company, priority 1994, dated 1996)

What was measured:
[1] = tested on: tonic seizure produced by 50 milliamps current through corneal electrodes (hind limb tonic extension); assay: Maximum Electroshock Test (MES); format: in vivo, female C57Bl/6 mice; settings: Mus musculus, ip, 0.5 h; mice, i.p. 30 min before MES; abolition of hind limb tonic extension; read-out: MES Results: median effective dose (ED50)
Method: (§1) The anticonvulsive properties of the compounds of the invention were evaluated using two standard animal models of epilepsy: the maximal electroshock test (MES) and the pentylenetetrazol (PTZ)-induced seizure procedure. Melatonergic action is indicated by binding studies done in hamster hypothalamus tissue.
2. Maximum Electroshock Test
The MES procedure used is based upon the tests disclosed by Swinyard and et al in J. Pharmacol, Expt. Ther., (1952) 106, 319 and L. A. Woodbury et al in Arch. Int. Pharmocodyn, (1952), 92-97. These tests are also described in U.S. Pat. Nos. 5,242,942 and 5,240,937, respectively.
In the MES procedure, a tonic seizure was produced in female C57Bl/6 mice (17-26 g) by the delivery of a 50 milliamps current through corneal electrodes for 0.2 sec. Before testing, the animals were allowed food and water ad libitum. Compounds were injected i.p. 30 min before the MES. Reference compounds (phenytoin, carbamazepine, phenobarbital, and valproic acid) were tested at the peak of activity and at the dose range reported in the literature. Seven mice were used per group. In this test anticonvulsive activity was indicated by the abolition of the hind limb tonic extension. The median effective dose (ED50) was obtained for each compound and compared to ED50 's of reference compound(s).

[2] = tested on: pentylenetetrazol (PTZ)-induced seizures; assay: Pentylenetetrazole (PTZ)-Induced Seizure Test; format: in vivo, female C57BI/6 mice; settings: 50 mg/kg i.p., mice, 30 min before 75 mg/kg PTZ i.p.
Method: as §1
1. Pentylenetetrazole--Induced Seizure Test
The PTZ technique employed was similar to that disclosed in P.C.T. publication WO 93/0572 (PCT/US92/07675), published on Apr. 1, 1993.
In the PTZ procedure, female C57BI/6 mice (17-26 g) were injected j.p. (vol=0.1 ml/20 g) with test compound or vehicle 30 min before i.p. administration of 75 mg/kg pentylenetetrazol. Multiple doses of reference compounds (ethosuximide, trimethadione, and pentobarbital) were tested at the peak of activity and at the dose range reported in the literature. Ten mice were used per group. After injection, mice were placed in individual observation cages and monitored for one hour. During the first thirty minutes following PTZ injection, seizure activity was recorded by measure: the latency to the onset of pre-convulsive activity (Pre) the latency to the onset of the first clonic seizure longer than five seconds (First) the latency to the onset of the first intense-generalized clonic/tonic seizure (IGS) and the length of survival (Surv Time). During the second thirty-minute period, only time of death was recorded.
Those compounds that produced a significant delay in the onset of seizure activity or delayed (or abolished) mortality when compared to that produced by vehicle (reference) were classified as anticonvulsants. Significant differences between animals treated with reference or test compounds were determined using the Student's t-test.

Question: How did the ED50 [1] turn out when `CC(=O)Nc1ccccc1-c1nc2ccccc2o1` [Example 11, N-[2-(benzoxazol-2-yl)phenyl] acetamide] was run?
Answer: < 75 mg/kg

Question: `CC(=O)Nc1ccccc1-c1nc2ccccc2s1` [Example 13, N-[2-(benzthiazol-2-yl)phenyl] acetamide] was tested. Which ED50 [1] did it give?
Answer: < 25 mg/kg

Question: With `CNC(=O)Nc1ccccc1-c1nc2ccccc2[nH]1` [Example 10, N-[2-(benzimidazol-2-yl)phenyl]-N'-methyl urea] as the compound, how does the ED50 [1] read?
Answer: < 75 mg/kg

Question: What about the “First: latency to first seizure” value [2] of the same compound?
Answer: ++ (>200% controls)

Question: And the “Pre: latency to first twitch” value [2]?
Answer: + (>100% controls)

Question: And the “Surv Time: duration of survival” value [2]?
Answer: ++ (>200% controls)

Question: And the “Surv: survival at one hour postPTZ” value [2]?
Answer: ++++ (>400% controls)

Question: What does the source list for `CNC(=O)Nc1ccccc1-c1nc2ccccc2o1` [Example 12, N-[2-(benzoxazol-2-yl)phenyl]-N'-methyl urea]?
Answer: ED50 [1]: < 100 mg/kg; First: latency to first seizure [2]: +++ (>300% controls); IGS: onset of intense, generalized seizures [2]: + (>100% controls); Pre: latency to first twitch [2]: + (>100% controls); Surv Time: duration of survival [2]: ++ (>200% controls); Surv: survival at one hour postPTZ [2]: ++ (>200% controls)

Question: `COCC(=O)Nc1ccccc1-c1nc2ccccc2[nH]1` [Example 2, N-[2-(benzimidazol-2-yl)phenyl] methoxyacetamide] was tested. Which ED50 [1] did it give?
Answer: < 75 mg/kg

Question: How did the ED50 [1] turn out when `CCC(=O)Nc1ccccc1-c1nc2ccccc2[nH]1` [Example 1, N-[2-(1H-benzimidazol-2-yl)phenyl] propanamide] was run?
Answer: < 25 mg/kg

Question: `COc1ccc2[nH]c(-c3ccccc3NC(C)=O)nc2c1` [Example 15, N-[2-(5-methoxy-1H-benzimidazol-2-yl)phenyl] acetamide] was tested. Which “First: latency to first seizure” value [2] did it give?
Answer: + (>100% controls)

Question: And the “Pre: latency to first twitch” value [2]?
Answer: + (>100% controls)

Question: And the “Surv Time: duration of survival” value [2]?
Answer: ++ (>200% controls)
